Measured values taken from paper PMC7995547, “ω‐Imidazolyl‐alkyl derivatives as new preclinical drug candidates for treating non‐alcoholic steatohepatitis” (Physiological Reports, 2021).

Key:
Type in all cases: in vivo, Wistar rats
[1] = tested on: HFD‐induced NASH rat model (serum); test: Liver enzyme activities and bilirubin in serum, NASH rat model
Experimental: (§1) Studies were done using Wistar rats of female sex by the Institute of Pharmacology and Biochemistry at Minsk. The animals were 80–90 days old and weighed 180–200 g. They had free access to a liquid Lieber‐DeCarli (LDC) diet (Lieber et al., 2004) and were housed under standard conditions meaning a 12‐h light/dark cycle at 22 ± 2°C and 55 ± 5% humidity.
(§2) Group 1 was designated as the first control group; it was fed a normal standard solid diet. Group 2, as the second control group, was fed a standard amount of fat as a part of the liquid “physiological,” non‐high fat LDC diet. All other groups received the liquid ‘disease‐causing’ LDC diet (Table 2), including a high content of unsaturated fatty acids.
(§3) Both LDC diets were in a liquid form as produced by ssniff‐Spezialdiäten GmbH, Soest (Germany). The feed was provided over the entire experimental period of 16 weeks; however, the corresponding experimental substances were only administered in the last four weeks (Figure 3).
(§4) The experimental substances I‐ol, I‐an, and UDCA were dissolved in a 0.8% aqueous HPMC gel to obtain the following concentrations: (1) I‐ol at 0.4, 4, and 40 mg/kg body weight (b.w.), (2) I‐an at 0.4, 4, and 40 mg/kg b.w., and (3) UDCA at 40 mg/kg b.w. The Group‐2 and −3 rats received only HPMC as placebo. Each test encompassed 6–8 rats that were put up in a separate cage. The rats were fed ad libitum, and their intake per cage was controlled daily. In order to ensure an exact daily reproducible dosage, the experimental substances or only HPMC was administered intragastrically via oral gavage. Basically, the drug therapy of a chronic disease is the more efficient the higher the adherence of the affected patients. This is generally higher with peroral administration than with any other form of application. At the end of the experiment, the animals were sacrificed under fasting conditions, by aorta dissection and exsanguination, after anesthetizing with an intraperitoneal injection of 5% pentobarbital solution.
(§5) The activities of the liver enzymes aspartate aminotransferase (AST), alanine aminotransferase (ALT), alkaline phosphatase (AP), and γ‐glutamyl transferase (γ‐GT) as well as bilirubin and triglyceride levels in the serum were determined as described by the instructions of BIO‐LA‐tests kit (Erba Lachema, Brno, Czech Republic).

[2] = tested on: HFD‐induced NASH rat model (liver and serum); test: End products of fat metabolism (liver and serum lipids), NASH rat model; conditions: UDCA 40 mg/kg b.w.
Experimental: as §1, §2, §3, §4, §5
Extraction of lipids was performed using a solvent composed of chloroform and methanol (2:1 v/v). Thin‐layer chromatography (TLC) was used to separate off neutral lipids and phospholipids. Silicagel G 60 plates (0.25 mm thick) were used. The lipids were separated by ascending chromatography in a system composed of hexane:diethylic ether:glacial acetic acid (73:25:2; v/v/v). They were visualized by iodine vapor and the spots corresponding to triglycerides and cholesterol were scraped off and eluted with methanol for spectrophotometric evaluation. Triglyceride and cholesterol levels were determined using the BIO‐LA‐test kit (Erba Lachema, Brno, Czech Republic). Phospholipid concentration was determined by measuring the levels of phosphomolybdate using an inorganic phosphate reagent containing molybdate (Findlay & Evans, 1987). VLDL level was determined by using the manganese precipitation method (Burstein & Scholnick, 1973) after partial modification (Hirano et al., 2003).

[3] = tested on: HFD‐induced NASH rat model (serum); test: Adipocytokines and glucose metabolism in serum, NASH rat model
Experimental: as §1, §2, §3, §4
The concentrations of adiponectin and TNFα were measured using ELISA kits sold by BioCat GmbH (Heidelberg, Germany), whereas the one for determining leptin level was procured from BioVendor Laboratory Medicine Inc. (Brno, Czech Republic). Insulin concentration was determined using the radioimmunoassay kit RIO‐insulin‐PG‐J125 (IBOCH, Minsk, Belarus). Serum glucose level was determined based on the “Accu‐Check Active blood glucose” monitoring method developed by Roche‐Diagnostics.

[4] = tested on: HFD‐induced NASH rat model (liver); test: Area of connective tissue in the liver (Mallory‐Azan staining), NASH rat model; conditions: compound overall
Experimental: as §1, §2, §3, §4
Liver tissue sections were subject to the Mallory‐Azan (Heidenhain Azan) staining method for visualizing the connective tissues. This method was a modification of the original Mallory staining protocol, wherein azocarmin with a mixture of aniline blue and orange G was used. In this method, the collagen tissue and basophilic granules turn blue, the muscle tissue and acidophilic granules turn orange to red, and the cell nuclei and cytoplasm turn red. Elastic fibers remain unstained; however, they might turn yellow or pink. The proportion of positively stained liver tissue to the total area of the histological slide was determined quantitatively.

[5] = tested on: HFD‐induced NASH rat model (liver); test: Liver histopathology, semi‐quantitative evaluation, NASH rat model; parameters: key to Steatosis score / Balooning score: 0, none; 1, ≤25%; 2, 26–50%; 3, ≥51–75% of liver parenchyma
Experimental: as §1, §2, §3, §4
Pieces of liver tissue measuring 1 × 2 × 0.5 mm were chosen randomly and fixed for a week in the mixture of 1% formaldehyde and 1% paraformaldehyde in Sorensen's phosphate buffer (pH 7.4) (Morphisto GmbH, Frankfurt/Main). After this the pieces were kept in 2.5% glutaraldehyde in same buffer, rinsed and then post‐fixed in 1% solution of osmium tetroxide on the Sorensen's phosphate buffer (pH 7.4). After fixation, the liver samples were dehydrated and embedded in the pre‐polymerized mixture of methyl methacrylate and butyl methacrylate (1:4, v/v) containing 2,4‐dichlorbenzoyl peroxide as a catalyst.
[…] A semi‐quantitative evaluation of the sections was performed according to the procedure described by Koppe et al. (Koppe et al., 2004).

[6] = tested on: HFD‐induced NASH rat model (liver); test: Oxidative stress (ROS status) in the liver, HFD-induced NASH rat model; conditions: liver
Experimental: as §1
The rats were divided into 10 groups based on the diets and experimental substances administered (Figure 2).
as §2, §3, §4
The formation of ROS in the rat liver was measured using NADPH‐induced chemiluminescence as described by Müller‐Peddinghaus et al. (Muller‐Peddinghaus, 1987). Luminol and lucigenin were used for detecting the superoxide radical anion (SRA) and hydrogen peroxide. Liver pieces were homogenized in 0.1 M sodium phosphate buffer, pH 7.4; the homogenates were centrifuged at 9,000 × g at 0°C; and aliquots were used for subsequent measurements. Reduced glutathione (GSH) was estimated via a modified Ellman's method (Ellman, 1959), in which 0.2 mL of the liver homogenate supernatant was added to 1.6 mL of an EDTA/sodium phosphoric acid solution and the absorbance noted at 412 nm against blank values. GSH solution produced immediately before application served as the standard. The end products of the lipid peroxidation reaction were equivalent to the thiobarbituric acid‐reacting substances (TBARS), and their concentration was measured according to the method described by Buege et al. (Buege & Aust, 1978). Enzymatic activities of microsomal glutathione reductase (GR) and cytosolic glutathione peroxidase (GPx) were measured according to the methodology of Buko et al. (Buko et al., 2002). Catalase activity was determined according to the spectroscopic methodology described by Beers et al. (Beers & Sizer, 1952) using hydrogen peroxide as the substrate.

[7] = serum, average over doses (I‐ol, I‐an), UDCA 40 mg/kg b.w.
[8] = serum, number: highest concentration (40 mg/kg b.w.), words: compound overall
[9] = average over doses (I‐ol, I‐an)
[10] = average over doses (I‐ol, I‐an), UDCA 40 mg/kg b.w.
[11] = 40.0 mg/kg b.w. + HFD, H.E.‐stained liver slices

With C[C@H](CCC(=O)O)[C@H]1CC[C@H]2[C@@H]3[C@@H](O)C[C@@H]4C[C@H](O)CC[C@]4(C)[C@H]3CC[C@]12C [UDCA, ursodeoxycholic acid, reference compound] as the compound, how does the “Decrease in serum bilirubin level compared to disease group” value ([1]; average over doses, UDCA 40 mg/kg b.w.) read?
Its value is “no therapeutic effect”.

And the “Decrease in γ‐GT enzymatic activity compared to disease group” value [1, 7]?
The value was 30%.

What about the “Reduction of the effect of HFD on γ‐GT activity” value [1, 7] of the same compound?
The value was 73%.

What about the “Decrease in ALT enzymatic activity compared to disease group” value ([1]; serum, highest concentrations (40 mg/kg b.w.)) of the same compound?
The value was 15%.

And the “Reduction of the effect of HFD on ALT activity” value ([1]; serum, highest concentrations (40 mg/kg b.w.), b87: dose not stated)?
The value was 50%.

And the “Decrease in AP enzymatic activity compared to disease group” value [1, 8]?
The value was “no therapeutic effect”.

And the “Decrease in AST enzymatic activity compared to disease group” value [1, 8]?
Its value is “no therapeutic effect”.

What about the “Decrease in liver triglyceride levels compared to disease group” value [2, 9] of the same compound?
The value was 17%.

What about the “Reduction of the effect of HFD on liver triglyceride levels” value [2, 9] of the same compound?
Its value is 39%.

What about the “Decrease in liver phospholipid levels compared to disease group” value ([2]; average over doses) of the same compound?
The value was “no therapeutic effect”.

What about the “Decrease in serum LDL cholesterol” value ([2]; average over doses) of the same compound?
Its value is “non‐significant trend toward lowering the serum LDL level”.

And the “Decrease in serum triglyceride levels compared to disease group” value ([2]; average over doses)?
The value was “no therapeutic effect”.

What about the “Decrease in serum glucose level” value ([3]; 40 mg/kg b.w.) of the same compound?
Its value is 26%.

What about the “Reversal of the effect of HFD on serum glucose level” value ([3]; 40 mg/kg b.w.) of the same compound?
The value was 100%.

What about the “Reduction of the effect of HFD on serum TNF‐α level” value ([3]; average over doses (I‐ol), UDCA 40 mg/kg b.w.) of the same compound?
The value was 75%.

What about the “Decrease in serum TNF‐α level compared to disease group” value [3, 10] of the same compound?
The value was 56%.

And the “Decrease in serum leptin compared to disease group” value [3, 10]?
Its value is 21%.

And the “Increase in serum adiponectin compared to disease group” value [3, 10]?
Its value is 42%.

What about the “Reduction of the effect of HFD on serum adiponectin” value ([3]; average over doses (I‐ol, I‐an), UDCA 40 mg/kg b.w. (elevated the concentration by)) of the same compound?
Its value is 52%.

And the “Reduction of the effect of HFD on serum leptin” value ([3]; average over doses (I‐ol, I‐an), UDCA 40 mg/kg b.w. (reduced leptin concentration))?
Its value is 72%.

And the “Effect on area of connective tissue in the liver (in words)” value [4]?
The value was “no therapeutic effect”.

And the Balooning score [5, 11]?
The Balooning score was 0.

What about the Inflammation score [5, 11] of the same compound?
Its Inflammation score is 1 (1, <5 signs of inflammation).

What about the Steatosis score [5, 11] of the same compound?
Its Steatosis score is 0–1.

What about the “Effect on liver histology (in words)” value ([5]; animals with NASH (HFD)) of the same compound?
The value was “improved liver histology”.

And the “Increase in GR activity compared to disease group” value ([6]; I‐ol, I‐an groups overall, UDCA 40 mg/kg b.w.)?
Its value is 24%.

And the “Decrease in SRA level compared to disease group” value ([6]; average over 0.4, 4, 40 mg/kg b.w. (I‐ol, I‐an), UDCA 40 mg/kg b.w., oral gavage daily, last 4 of 16 weeks HFD)?
The value was 30%.

And the “Decrease in TBARS level compared to disease group” value [6, 10]?
Its value is 27%.

What about the “Reduction of the effect of HFD on the SRA level” value [6, 10] of the same compound?
Its value is 84%.

And the “Reduction of the effect of HFD on the TBARS level” value [6, 10]?
The value was 63%.

What about the “Effect on GSH level (in words)” value ([6]; compound overall) of the same compound?
The value was “overall ineffective”.

And the “Decrease in hydrogen peroxide level compared to disease group” value ([6]; highest concentration (40 mg/kg b.w.))?
The value was “no significant effect”.

And the “Effect of HFD nullified, GR activity increased by (on an average)” value ([6]; relative to the effect of HFD)?
Its value is 99%.
